In ChEMBL document CHEMBL6153138, “Discovery of Novel Aromatic Urea-Imidazole Salt Derivatives for Cancer Therapy via Targeting ERK1/2” (J Med Chem, 2025) one finds IC50 and inhibition of growth data, which are given here for twelve molecules.

Chain of Mitogen-activated protein kinase 1 (P28482 whole entry): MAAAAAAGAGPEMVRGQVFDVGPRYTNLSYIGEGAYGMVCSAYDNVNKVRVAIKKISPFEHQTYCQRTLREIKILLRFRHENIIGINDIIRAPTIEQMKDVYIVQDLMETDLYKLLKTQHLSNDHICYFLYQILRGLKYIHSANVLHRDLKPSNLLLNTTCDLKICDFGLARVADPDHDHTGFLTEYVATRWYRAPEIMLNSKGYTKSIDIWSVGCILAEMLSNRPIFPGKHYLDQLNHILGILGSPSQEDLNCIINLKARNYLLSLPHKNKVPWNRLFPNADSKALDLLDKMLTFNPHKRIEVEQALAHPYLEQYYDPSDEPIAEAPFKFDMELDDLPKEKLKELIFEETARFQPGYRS

The first assay addresses Mitogen-activated protein kinase 1 (Homo sapiens, UniProt P28482). The assay can be described thus: Inhibition of ERK2 (unknown origin) incubated for 60 mins by luminescence based ADP-Glo kinase assay.
Conditions: not given
On the technique in general: ADP-Glo turns the ADP formed in a reaction into a luminescent signal.
A word on the IC50: it is the point on the concentration scale where inhibition reaches its midpoint. A lower IC50 goes with inhibition by little substance. Take `CC(=O)N[C@@H](Cc1ccccc1)Cn1cnc2ccccc21`: the IC50 is greater than 10000 nM.
The molecule `CC(=O)N[C@@H](Cc1ccccc1)Cn1c[n+](Cc2cccc3ccccc23)c2ccccc21` displayed an IC50 greater than 10000 nM.
In turn, `CC[C@@H](C)[C@@H](Cn1cc[n+](Cc2ccccc2)c1C)NC(=O)Nc1cc(C(F)(F)F)cc(C(F)(F)F)c1` returned an IC50 of 406 nM.
`CC[C@@H](C)[C@@H](Cn1cc[n+](Cc2ccccc2)c1)NC(=O)Nc1cc(C(F)(F)F)cc(C(F)(F)F)c1`: the IC50 was 483 nM.
`CC(C)[C@@H](Cn1cc[n+](Cc2ccccc2)c1)NC(=O)Nc1cc(C(F)(F)F)cc(C(F)(F)F)c1` returned an IC50 of 606 nM.
As to `CC[C@@H](C)[C@@H](Cn1cc(C(F)(F)F)[n+](Cc2ccccc2)c1)NC(=O)Nc1cc(C(F)(F)F)cc(C(F)(F)F)c1`, 507 nM corresponded to half-maximal inhibition (IC50).
Turning to `O=C(N[C@@H](Cc1ccccc1)Cn1cnc2ccccc21)c1ccccc1`, the IC50 is greater than 10000 nM.
Same read-out and setting: under `O=C(Nc1cc(C(F)(F)F)cc(C(F)(F)F)c1)N[C@@H](Cc1ccccc1)Cn1cc(C(F)(F)F)[n+](Cc2ccccc2)c1` stands 297 nM.
In turn, `Cc1n(C[C@H](Cc2ccccc2)NC(=O)Nc2cc(C(F)(F)F)cc(C(F)(F)F)c2)cc[n+]1Cc1ccccc1` yielded an IC50 of 376 nM.
The molecule `O=C(N[C@@H](Cc1ccccc1)Cn1c[n+](Cc2cccc3ccccc23)c2ccccc21)c1ccccc1` registered a concentration for half-maximal inhibition (IC50) greater than 10000 nM.
Consider `CC(C)[C@@H](Cn1c[n+](Cc2ccccc2)c2ccccc21)NC(=O)Nc1cc(C(F)(F)F)cc(C(F)(F)F)c1`, for which half-maximal inhibition (IC50) required 285 nM.
The molecule `O=C(Nc1cc(C(F)(F)F)cc(C(F)(F)F)c1)N[C@@H](Cc1ccccc1)Cn1cc[n+](Cc2ccccc2)c1` gave an IC50 of 272 nM.

The subject of another assay is HepG2. The assay is described as follows: Growth inhibition of human HepG2 cells at 5 uM incubated for 48 hrs by CCK-8 method relative to control. In kind it is functional. The conditions noted are these: read-out: GI. Background: Formazan colour is commonly taken as a measure of viable cells.
Take `CC[C@@H](C)[C@@H](Cn1cc[n+](Cc2ccccc2)c1C)NC(=O)Nc1cc(C(F)(F)F)cc(C(F)(F)F)c1`: the inhibition of growth at 5 µM was 71.3%.
Turning to `CC[C@@H](C)[C@@H](Cn1cc[n+](Cc2ccccc2)c1)NC(=O)Nc1cc(C(F)(F)F)cc(C(F)(F)F)c1`, the inhibition of growth at 5 µM came to 47.2%.
Still for that read-out and setting: for `CC(C)[C@@H](Cn1cc[n+](Cc2ccccc2)c1)NC(=O)Nc1cc(C(F)(F)F)cc(C(F)(F)F)c1` the value was 24.5%.
Regarding `CC[C@@H](C)[C@@H](Cn1cc(C(F)(F)F)[n+](Cc2ccccc2)c1)NC(=O)Nc1cc(C(F)(F)F)cc(C(F)(F)F)c1`, the inhibition of growth at 5 µM amounted to 13.9%.
As to `O=C(Nc1cc(C(F)(F)F)cc(C(F)(F)F)c1)N[C@@H](Cc1ccccc1)Cn1cc(C(F)(F)F)[n+](Cc2ccccc2)c1`, the inhibition of growth at 5 µM came out at 31.2%.
`Cc1n(C[C@H](Cc2ccccc2)NC(=O)Nc2cc(C(F)(F)F)cc(C(F)(F)F)c2)cc[n+]1Cc1ccccc1`: the inhibition of growth at 5 µM was determined as 20.8%.
`CC(C)[C@@H](Cn1c[n+](Cc2ccccc2)c2ccccc21)NC(=O)Nc1cc(C(F)(F)F)cc(C(F)(F)F)c1`: the inhibition of growth at 5 µM is 39.5%.
With `O=C(Nc1cc(C(F)(F)F)cc(C(F)(F)F)c1)N[C@@H](Cc1ccccc1)Cn1cc[n+](Cc2ccccc2)c1`, the inhibition of growth at 5 µM worked out at 38.1%.

The subject of the next assay is 5637. The assay can be described thus: Antiproliferative activity against human 5637 cells incubated for 48 hrs by CCK-8 method. The format is functional, cell-based. Conditions: Homo sapiens, 5637, 48 h.
The molecule `CC[C@@H](C)[C@@H](Cn1cc(C(F)(F)F)[n+](Cc2ccccc2)c1)NC(=O)Nc1cc(C(F)(F)F)cc(C(F)(F)F)c1` registered an IC50 of 3470 nM.

The subject of a further assay is A549. The assay can be described thus: Growth inhibition of human A549 cells at 5 uM incubated for 48 hrs by CCK-8 method relative to control. The format is functional. The conditions noted are these: read-out: GI.
In the case of `CC[C@@H](C)[C@@H](Cn1cc[n+](Cc2ccccc2)c1C)NC(=O)Nc1cc(C(F)(F)F)cc(C(F)(F)F)c1`, the inhibition of growth at 5 µM came out at 8.26%.
Regarding `CC[C@@H](C)[C@@H](Cn1cc[n+](Cc2ccccc2)c1)NC(=O)Nc1cc(C(F)(F)F)cc(C(F)(F)F)c1`, the inhibition of growth at 5 µM amounted to 8.36%.
For `CC(C)[C@@H](Cn1cc[n+](Cc2ccccc2)c1)NC(=O)Nc1cc(C(F)(F)F)cc(C(F)(F)F)c1`, the inhibition of growth at 5 µM stood at 7.18%.
As for `CC[C@@H](C)[C@@H](Cn1cc(C(F)(F)F)[n+](Cc2ccccc2)c1)NC(=O)Nc1cc(C(F)(F)F)cc(C(F)(F)F)c1`, the inhibition of growth at 5 µM was found to be 23.5%.
On to `O=C(Nc1cc(C(F)(F)F)cc(C(F)(F)F)c1)N[C@@H](Cc1ccccc1)Cn1cc(C(F)(F)F)[n+](Cc2ccccc2)c1`, for which the inhibition of growth at 5 µM stood at 13.5%.
On the same count and under the same terms, under `Cc1n(C[C@H](Cc2ccccc2)NC(=O)Nc2cc(C(F)(F)F)cc(C(F)(F)F)c2)cc[n+]1Cc1ccccc1` stands 2.07%.
Consider `CC(C)[C@@H](Cn1c[n+](Cc2ccccc2)c2ccccc21)NC(=O)Nc1cc(C(F)(F)F)cc(C(F)(F)F)c1`, for which the inhibition of growth at 5 µM was 30.2%.
`O=C(Nc1cc(C(F)(F)F)cc(C(F)(F)F)c1)N[C@@H](Cc1ccccc1)Cn1cc[n+](Cc2ccccc2)c1`: the inhibition of growth at 5 µM came to 9.26%.

In the next assay the target is Mitogen-activated protein kinase 3 (Homo sapiens, UniProt P27361). The assay is described as follows: Inhibition of ERK1 (unknown origin) incubated for 60 mins by luminescence based ADP-Glo kinase assay.
Chain of Mitogen-activated protein kinase 3 (P27361 whole entry): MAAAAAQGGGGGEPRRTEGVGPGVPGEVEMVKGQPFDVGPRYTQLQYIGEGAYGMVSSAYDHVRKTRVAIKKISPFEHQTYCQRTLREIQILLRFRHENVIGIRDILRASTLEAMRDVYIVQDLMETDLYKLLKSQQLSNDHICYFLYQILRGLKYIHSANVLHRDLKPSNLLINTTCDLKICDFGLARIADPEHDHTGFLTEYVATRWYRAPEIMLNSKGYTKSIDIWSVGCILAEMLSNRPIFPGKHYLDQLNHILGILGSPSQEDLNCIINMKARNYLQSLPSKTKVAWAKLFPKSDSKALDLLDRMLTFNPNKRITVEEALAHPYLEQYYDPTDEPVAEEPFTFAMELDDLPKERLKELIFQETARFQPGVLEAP
Conditions: not given
On to `CC(=O)N[C@@H](Cc1ccccc1)Cn1cnc2ccccc21`, for which the IC50 is greater than 10000 nM.
Still for that read-out and setting: for `CC(=O)N[C@@H](Cc1ccccc1)Cn1c[n+](Cc2cccc3ccccc23)c2ccccc21` the value was greater than 10000 nM.
The molecule `O=C(N[C@@H](Cc1ccccc1)Cn1cnc2ccccc21)c1ccccc1` registered an IC50 greater than 10000 nM.
The molecule `O=C(N[C@@H](Cc1ccccc1)Cn1c[n+](Cc2cccc3ccccc23)c2ccccc21)c1ccccc1` yielded an IC50 greater than 10000 nM.

The test system of a further assay is MCF7. The assay can be described thus: Growth inhibition of human MCF7 cells at 5 uM incubated for 48 hrs by CCK-8 method relative to control. The format is functional. The conditions noted are these: read-out: GI.
As for `CC[C@@H](C)[C@@H](Cn1cc[n+](Cc2ccccc2)c1C)NC(=O)Nc1cc(C(F)(F)F)cc(C(F)(F)F)c1`, the inhibition of growth at 5 µM came to 64%.
The same measure, in the same setting: for `CC[C@@H](C)[C@@H](Cn1cc[n+](Cc2ccccc2)c1)NC(=O)Nc1cc(C(F)(F)F)cc(C(F)(F)F)c1` the value was 86.9%; for `CC(C)[C@@H](Cn1cc[n+](Cc2ccccc2)c1)NC(=O)Nc1cc(C(F)(F)F)cc(C(F)(F)F)c1`, 55.7%; for `CC[C@@H](C)[C@@H](Cn1cc(C(F)(F)F)[n+](Cc2ccccc2)c1)NC(=O)Nc1cc(C(F)(F)F)cc(C(F)(F)F)c1`, 100%.
On to `O=C(Nc1cc(C(F)(F)F)cc(C(F)(F)F)c1)N[C@@H](Cc1ccccc1)Cn1cc(C(F)(F)F)[n+](Cc2ccccc2)c1`, for which the inhibition of growth at 5 µM came out at 19.4%.
Same read-out and setting: for `Cc1n(C[C@H](Cc2ccccc2)NC(=O)Nc2cc(C(F)(F)F)cc(C(F)(F)F)c2)cc[n+]1Cc1ccccc1` the value was 40.5%; for `CC(C)[C@@H](Cn1c[n+](Cc2ccccc2)c2ccccc21)NC(=O)Nc1cc(C(F)(F)F)cc(C(F)(F)F)c1`, 91.9%; for `O=C(Nc1cc(C(F)(F)F)cc(C(F)(F)F)c1)N[C@@H](Cc1ccccc1)Cn1cc[n+](Cc2ccccc2)c1`, 82%.

A further assay deals with MCF7. The assay is described as follows: Antiproliferative activity against human MCF7 cells incubated for 48 hrs by CCK-8 method. In kind it is functional, cell-based. Conditions: MCF7, 48 h.
Regarding `CC[C@@H](C)[C@@H](Cn1cc(C(F)(F)F)[n+](Cc2ccccc2)c1)NC(=O)Nc1cc(C(F)(F)F)cc(C(F)(F)F)c1`, the IC50 came to 3480 nM.
On the same count and under the same terms, for `CC(C)[C@@H](Cn1c[n+](Cc2ccccc2)c2ccccc21)NC(=O)Nc1cc(C(F)(F)F)cc(C(F)(F)F)c1` the value was 3370 nM.

A further assay deals with 5637. The assay can be described thus: Growth inhibition of human 5637 cells at 5 uM incubated for 48 hrs by CCK-8 method relative to control. The conditions noted are these: read-out: GI. The format is functional.
On to `CC[C@@H](C)[C@@H](Cn1cc[n+](Cc2ccccc2)c1C)NC(=O)Nc1cc(C(F)(F)F)cc(C(F)(F)F)c1`, for which the inhibition of growth at 5 µM was 17.6%.
Turning to `CC[C@@H](C)[C@@H](Cn1cc[n+](Cc2ccccc2)c1)NC(=O)Nc1cc(C(F)(F)F)cc(C(F)(F)F)c1`, the inhibition of growth at 5 µM stood at 85.6%.
With `CC(C)[C@@H](Cn1cc[n+](Cc2ccccc2)c1)NC(=O)Nc1cc(C(F)(F)F)cc(C(F)(F)F)c1`, the inhibition of growth at 5 µM came to 31.5%.
Consider `CC[C@@H](C)[C@@H](Cn1cc(C(F)(F)F)[n+](Cc2ccccc2)c1)NC(=O)Nc1cc(C(F)(F)F)cc(C(F)(F)F)c1`, for which the inhibition of growth at 5 µM was determined as 96.8%.
Take `O=C(Nc1cc(C(F)(F)F)cc(C(F)(F)F)c1)N[C@@H](Cc1ccccc1)Cn1cc(C(F)(F)F)[n+](Cc2ccccc2)c1`: the inhibition of growth at 5 µM worked out at 26.4%.
As for `Cc1n(C[C@H](Cc2ccccc2)NC(=O)Nc2cc(C(F)(F)F)cc(C(F)(F)F)c2)cc[n+]1Cc1ccccc1`, the inhibition of growth at 5 µM is 12.8%.
Same read-out and setting: for `CC(C)[C@@H](Cn1c[n+](Cc2ccccc2)c2ccccc21)NC(=O)Nc1cc(C(F)(F)F)cc(C(F)(F)F)c1` the value was 56.5%.
With `O=C(Nc1cc(C(F)(F)F)cc(C(F)(F)F)c1)N[C@@H](Cc1ccccc1)Cn1cc[n+](Cc2ccccc2)c1`, the inhibition of growth at 5 µM came to 61.9%.
